Earlier results in patent US20150157647A1, “METHODS AND CO[…] TO ACUTE RESPIRATORY DISTRESS SYNDROME” (priority 2013, published 2015).

Assays:
[1] = tested on: endothelial monolayers obtained from rat lung; conditions: interferes with function of adherence proteins
[2] = tested on: animal models of preeclampsia
[3] = tested on: rodent brain contusion model; conditions: given 1 hour after the insult

| SMILES | Effect on vascular permeability [1] | In vitro vascular action | Effect on preeclampsia [2] | Effect on tissue injury [3] |
| --- | --- | --- | --- | --- |
| C[C@]12CC[C@H](O)C[C@@]1(O)CC[C@@H]1[C@@H]2CC[C@]2(C)[C@@H](c3ccc(=O)oc3)C[C@H]3O[C@]132 [MBG, marinobufagenin] | causes vascular “leak” | vasoconstrictor | – | – |
| C[C@]12CC[C@H](O)C[C@H]1CC[C@@H]1[C@@H]2CC[C@]2(C)[C@@H](c3ccc(=O)oc3)C[C@H]3O[C@]132 [RBG, epoxy-3β-hydroxy-5β-bufa-20,22-dienolide] | – | – | prevents preeclampsia | amelioration of tissue injury |
